According to ChEMBL document CHEMBL5029142, “Stapled Wasp Venom-Derived Oncolytic Peptides with Side Chains Induce Rapid Membrane Lysis and Prolonged Immune Responses in Melanoma” (J Med Chem, 2021):
Calls of active or inactive are those of the source. The calls are words filed in the database; no cut-off is given here. Starred links: 1 amine or outer side, 2 acyl side, 3 side chain; linkers in the order of their positions; H or OH if unused. Positions of bridges follow the written chain, without caps; N, C: chain ends. Non-standard residues stand in square brackets, D forms with d. Residues, ends and D or L forms follow the SMILES beside them. ξ: configuration not given here. ξαMeNle(6-ylidene) = CC(CCCC=[*:3])(N[*:1])C(=O)[*:2]; X1 = CC(C)C[C@@](CCCC=[*:3])(N[*:1])C(=O)[*:2]; X2 = NCCCC[C@@](CCCC=[*:3])(N[*:1])C(=O)[*:2]; Dip = N[C@H](C(=O)O)C(c1ccccc1)c1ccccc1; S5 = C=CCCC[C@](C)(N)C(=O)O

Experiments:
B16-F10 [1] = assay: Antitumor immunity against mouse B16-F10 cells implanted in anti-CD8 positive antibody stimulated C57 mouse assessed as inhibition of tumor progression at 1 mg, IT administered once daily for 3 consecutive days starting from day 7 and measured after 20 days; type: functional, cell-based; details: time 20.0 day
4T1 [2] = assay: Antiproliferative activity against triple-negative mouse 4T1 cells assessed as inhibition of cell growth measured after 24 hrs by Cell Counting Kit-8 assay; type: functional, cell-based; details: 4T1, 24 h
B16-F10 [3] = assay: Antiproliferative activity against mouse B16-F10 cells assessed as inhibition of cell growth measured after 24 hrs by Cell Counting Kit-8 assay; type: functional, cell-based; details: B16-F10, 24 h
B16-F10 [4] = assay: (§1) Antitumor activity against mouse B16-F10 cells implanted in C57 mouse assessed as increase in infiltration of CD4 positive T cells into tumors at 1 mg, IT administered once daily for 3 consecutive days starting from day 5 post inoculation and measured after 10 days by histochemical staining based analysis; type: functional, cell-based; details: time 10.0 day
4T1 [5] = assay: Antitumor activity against mouse 4T1 cells implanted in BALB/c mouse assessed as inhibition of tumor progression at 1 mg, IT administered once daily for 3 consecutive days starting from day 2 post inoculation; type: functional, cell-based; details: time 3.0 day
4T1 [6] = assay: as §1, with “mouse 4T1” for “mouse B16-F10”, “T lymphocytes in” for “T cells into”, “day 2” for “day 5”, “after 7” for “after 10”; type: functional, cell-based; details: time 7.0 day
B16-F10 [7] = assay: Antitumor activity against mouse B16-F10 cells implanted in C57 mouse assessed as induction of cell necrosis by measuring reduction in live cells at 1 mg, IT administered once daily for 3 consecutive days starting from day 5 post inoculation and measured after 10 to 14 days by hematoxylin-eosin staining based assay; type: functional; details: time 10-14 day
4T1 [8] = assay: Cytotoxicity against mouse 4T1 cells assessed as permeabilization in to cell membrane at 10 uM measured up to 3 hrs by calcein-AM and PI dual staining based live/dead cell viability assay; type: functional; details: time hrs <=3, TDE = time-dependent effect
[9] = Toxicity in B16-F10 tumor bearing C57 mouse assessed as change in body weight at 1 mg, IT administered once daily for 3 consecutive days starting from day 5 post inoculation; details: in vivo, other, 72 h, time 3 day
B16-F10 [10] = assay: as §1, with “CD8” for “CD4”; type: functional, cell-based; details: time 10.0 day
4T1 [11] = assay: as §1, with “mouse 4T1” for “mouse B16-F10”, “of CD8” for “of CD4”, “T lymphocytes in” for “T cells into”, “day 2” for “day 5”, “after 7” for “after 10”; type: functional, cell-based; details: time 7.0 day
[12] = Toxicity in 4T1 tumor bearing BALB/c mouse assessed as increase in body weight at 1 mg, IT administered once daily for 3 consecutive days starting from day 2 post inoculation; details: in vivo, other, 72 h, time 3 day
B16-F10 [13] = assay: Antitumor activity against mouse B16-F10 cells implanted in C57 mouse assessed as reduction in tumor growth at 1 mg, IT administered once daily for 3 consecutive days starting from day 5 post inoculation; type: functional, cell-based; details: time 3.0 day
B16-F10 [14] = assay: Antitumor immunity against mouse B16-F10 cells implanted in anti-CD8 positive antibody stimulated C57 mouse assessed as inhibition of tumor progression at 1 mg, IT administered once daily for 3 consecutive days starting from day 7 and measured after 40 days; type: functional, cell-based; details: time 40.0 day
[15] = Hemolytic activity in mouse RBC assessed as hemoglobin release at 80 uM incubated for 1 hr by absorbance based method relative to control; type: ADME, tissue-based, Erythrocyte; details: mouse red blood cells, read-out: Activity
4T1 [16] = assay: Antitumor activity against mouse 4T1 cells implanted in BALB/c mouse assessed as necrosis at 1 mg, IT administered once daily for 3 consecutive days starting from day 2 post inoculation and measured on day 18 by hematoxylin-eosin staining based assay; type: functional, cell-based; details: time 18.0 day
4T1 [17] = assay: Antitumor activity against mouse 4T1 cells implanted in BALB/c mouse assessed as necrosis at 1 mg, IT administered once daily for 3 consecutive days starting from day 2 post inoculation and measured on day 7 by hematoxylin-eosin staining based assay; type: functional, cell-based; details: time 7.0 day
[18] = Stability of the compound assessed as alpha chymotrypsin (unknown origin)-mediated proteolysis by measuring degradation half life at 1 mM measured up to 12 hrs by HPLC analysis; type: ADME; details: human; for half-life at 1000 µM: alpha-chymotrypsin
4T1 [19] = assay: Cytotoxicity against mouse 4T1 cells assessed as loss of membrane integrity by measuring increase in LDH release incubated for 24 hrs by LDH release assay; type: functional, cell-based
4T1 [20] = assay: Cytotoxicity against mouse 4T1 cells assessed as disruption of cells by measuring increase in red fluorescence at 10 uM measured up to 3 hrs by calcein-AM and PI dual staining based live/dead cell viability assay; type: functional; details: time hrs <=3
[21] = Hemolytic activity in mouse RBC assessed as hemoglobin release at 20 to 80 uM incubated for 1 hr by absorbance based method; type: tissue-based; details: erythrocyte, dose 20-80 µM
4T1 [22] = assay: Cytotoxicity against mouse 4T1 cells assessed as increase in extracellular ATP level at 50 uM measured up to 60 mins by luminometric method; type: functional, cell-based; details: time min <=60
4T1 [23] = assay: Induction of morphological changes in mouse 4T1 cells assessed as change in adhesion measured up to 10 mins by bright field 3D live-cell imaging analysis; type: functional, cell-based; details: time min <=10
B16-F10 [24] = assay: Antitumor immunity against mouse B16-F10 cells implanted in C57 mouse assessed as surface translocation of calreticulin at IC75 measured after 6 hrs by DiR/Hoechst 33342 staining based confocal microscopic analysis; type: functional, cell-based
[25] = Stability of the compound assessed as alpha chymotrypsin (unknown origin)-mediated proteolysis by measuring parent compound remaining at 1 mM measured up to 12 hrs by HPLC analysis; type: ADME; details: human, read-out: Stability
B16-F10 [26] = assay: Antitumor immunity against mouse B16-F10 cells implanted in C57 mouse assessed as release of HMGB-1 at IC75 measured after 6 hrs by Hoechst 33342 staining based confocal microscopic analysis; type: functional, cell-based
4T1 [27] = assay: Induction of morphological changes in mouse 4T1 cells assessed as appearance of broken cell particles measured after 5 mins by bright field 3D live-cell imaging analysis; type: functional, cell-based
4T1 [28] = assay: Antitumor immunity against mouse 4T1 cells implanted in […] mouse assessed as release of HMGB-1 at IC75 measured after 6 hrs by Hoechst 33342 staining based confocal microscopic analysis; type: functional, cell-based
4T1 [29] = assay: Antitumor immunity against mouse 4T1 cells implanted in […] mouse assessed as surface translocation of calreticulin at IC75 measured after 6 hrs by DiR/Hoechst 33342 staining based confocal microscopic analysis; type: functional, cell-based

Row | Structure (SMILES) | IC50 (4T1 [2]) [µM] | IC50 (B16-F10 [3]) [µM] | Activity (B16-F10 [4]) | Activity (4T1 [5]) | Activity (4T1 [6]) | Activity (B16-F10 [7]) | Activity [9] | Activity (B16-F10 [10]) | Activity (4T1 [11]) | Activity [12] | Activity (B16-F10 [13]) | Activity (4T1 [16]) | Activity (4T1 [17]) | Activity (4T1 [19]) | Activity (4T1 [20]) | other results
1 | CC[C@H](C)[C@@H]1NC(=O)[C@H](CCCNC(=N)N)NC(=O)[C@H](CCCCN)NC(=O)[C@@](CC(C)C)(NC(=O)[C@H](CC(C)C)NC(=O)CN)CCC/C=C\CCC[C@@](CCCCN)(C(=O)N[C@H](C(=O)N[C@@H](CC(C)C)C(=O)N[C@@H](CC(C)C)C(N)=O)[C@@H](C)O)NC1=O (H-GL[X1]KRI[X2]TLL-NH2; staple (Z) 3-7) | 6.57 | 30.4 | Active | inactive | inactive | Active | Non-Toxic | Active | inactive | Non-Toxic | Active | inactive | Active |  |  | Activity (B16-F10 [1]): inactive; Activity (4T1 [8]): Tde; Activity (B16-F10 [14]): inactive; hemolysis at 1 h, 80 µM [15]: < 10%
2 | CC[C@H](C)[C@H](NC(=O)[C@H](CCCNC(=N)N)NC(=O)[C@H](CCCCN)NC(=O)[C@H](CC(C)C)NC(=O)[C@H](CC(C)C)NC(=O)CN)C(=O)N[C@@H](CCCCN)C(=O)N[C@H](C(=O)N[C@@H](CC(C)C)C(=O)N[C@@H](CC(C)C)C(N)=O)[C@@H](C)O [ANOPLIN] (H-GLLKRIKTLL-NH2) | 191 | > 400 | Active |  | inactive |  | Non-Toxic | Active | inactive | Non-Toxic | inactive |  |  | Dose-Dependent Effect | inactive | half-life at 1000 µM [18]: 12 min
3 | CC[C@H](C)[C@H](NC(=O)[C@]1(C)CCC/C=C\CCCC(C)(N)C(=O)N[C@@H](CC(C)C)C(=O)N[C@@H](CC(C)C)C(=O)N[C@@H](CCCCN)C(=O)N1)C(=O)N[C@@H](CCCCN)C(=O)N[C@H](C(=O)N[C@@H](CC(C)C)C(=O)N[C@@H](CC(C)C)C(N)=O)[C@@H](C)O (stereo partly drawn) (H-[ξαMeNle(6-ylidene)]LLK[S5]IKTLL-NH2; staple (Z) 1-5) | 5.15 | 15.1 |  |  |  |  |  |  |  |  |  |  |  |  |  | Activity [21]: Toxic
4 | NCCCC[C@H](NC(=O)[C@@H](NC(=O)[C@H](Cc1c[nH]c2ccccc12)NC(=O)[C@H](CCCCN)NC(=O)[C@H](CCCCN)NC(=O)[C@H](Cc1c[nH]c2ccccc12)NC(=O)[C@H](Cc1c[nH]c2ccccc12)NC(=O)[C@H](CCCCN)NC(=O)[C@@H](N)CCCCN)C(c1ccccc1)c1ccccc1)C(N)=O [RUXOTEMITIDE] (H-KKWWKKW[Dip]K-NH2) |  |  | Active | inactive | inactive | Active | Non-Toxic | Active | inactive | Non-Toxic | Active | inactive | Active | Dose-Dependent Effect | Active | half-life at 1000 µM [18]: 34 min; Activity (4T1 [22]): Active
5 | CC(C)C[C@H](NC(=O)CN)C(=O)N[C@@H](CC(C)C)C(=O)N[C@@H](CCCCN)C(=O)N[C@@H](CCCNC(=N)N)C(=O)N[C@@]1(C)CCC/C=C\CCC[C@@](C)(C(N)=O)NC(=O)[C@H](CC(C)C)NC(=O)[C@H]([C@@H](C)O)NC(=O)[C@H](CCCCN)NC1=O (H-GLLKR[S5]KTL[S5]-NH2; staple (Z) 6-10) | 31.2 | 66.1 |  |  |  |  |  |  |  |  |  |  |  |  |  | 
6 | CC[C@H](C)[C@@H]1NC(=O)[C@@](C)(NC(=O)[C@H](CCCCN)NC(=O)[C@H](CC(C)C)NC(=O)[C@H](CC(C)C)NC(=O)CN)CCC/C=C\CCC[C@@](C)(C(=O)N[C@@H](CC(C)C)C(N)=O)NC(=O)[C@H]([C@@H](C)O)NC(=O)[C@H](CCCCN)NC1=O (H-GLLK[S5]IKT[S5]L-NH2; staple (Z) 5-9) | 5.15 | 15.7 |  |  |  |  |  |  |  |  |  |  |  |  |  | 
7 | CC[C@H](C)[C@@H]1NC(=O)[C@H](CCCNC(=N)N)NC(=O)[C@@](C)(NC(=O)[C@H](CC(C)C)NC(=O)[C@H](CC(C)C)NC(=O)CN)CCC/C=C\CCC[C@@](C)(C(=O)N[C@@H](CC(C)C)C(=O)N[C@@H](CC(C)C)C(N)=O)NC(=O)[C@H](CCCCN)NC1=O (H-GLL[S5]RIK[S5]LL-NH2; staple (Z) 4-8) | 33.5 | 59.7 |  |  |  |  |  |  |  |  |  |  |  |  |  | 
8 | CC[C@H](C)[C@@H]1NC(=O)[C@H](CCCNC(=N)N)NC(=O)[C@H](CCCCN)NC(=O)[C@@](C)(NC(=O)[C@H](CC(C)C)NC(=O)CN)CCC/C=C\CCC[C@@](C)(C(=O)N[C@H](C(=O)N[C@@H](CC(C)C)C(=O)N[C@@H](CC(C)C)C(N)=O)[C@@H](C)O)NC1=O (H-GL[S5]KRI[S5]TLL-NH2; staple (Z) 3-7) | 4.02 | 16.1 | Active | inactive | inactive | Active | Non-Toxic | Active | inactive | Non-Toxic | Active | inactive | Active | Dose-Dependent Effect | Active | Activity (4T1 [23]): Active; Activity (B16-F10 [24]): Active; Stability ([18]; 12 h, 1000 µM): Stable; Activity (4T1 [22]): Active; remaining at 12 h, 1000 µM [25]: > 60%; Activity (B16-F10 [26]): Active; Activity (4T1 [27]): Active; Activity (4T1 [28]): Active; Activity (4T1 [29]): Active; Activity [21]: Toxic
